Reference: US11969448B2, “Method for improving an effect of chemotherapeutic drug of gemcitabine on inhibiting pancreatic cancer and improving side effect of chemotherapeutic drug of Gemcitabine” (GENMONT BIOTECH INC., priority 2020, dated 2024)

Legend:
[1] = system: BXPC-3 pancreatic cancer cells; assay: MTT test, Experiment 2: BXPC-3 cells treated with probiotic lysates combined with Gemcitabine; type: cell-based; conditions: Gemcitabine 10 ng/mL alone; cultured 0 to 6 days; FIG. 7A
Experimental: 2500 BXPC-3 pancreatic cancer cells were seeded into each well of a 96-well plate, and the 96-well plate was incubated at 37° C. overnight. After the old cell culture medium was aspirated, the fresh culture medium containing the lysate of the Lactobacillus reuteri GMNL-89, the lysate of the Lactobacillus paracasei GMNL-133 (25 ug/mL of concentration), or the lysate of the Lactobacillus reuteri GMNL-89 and the Lactobacillus paracasei GMNL-133 (i.e., the probiotic composition of the present disclosure) were respectively mixed with the fresh culture medium containing the chemotherapeutic drug of Gemcitabine (10 ng/mL of concentration) to be added to the BXPC-3 pancreatic cancer cells. Then, the BXPC-3 pancreatic cancer cells were cultured for 0 to 6 days. At different time points, based on day 0, the cell viability rate was determined by the MTT test, and the cell viability rate at different time points was calculated.

[2] = system: Caerulein-treated LSL-KrasG12D/−-Pdx-1-Cre (KC) gene transgenic mice (pancreatic intraepithelial neoplasia lesions); assay: Histological staining (H&E, vimentin and Ki67 immunohistochemistry) of the pancreas in the mouse model of pancreatic cancer; type: in vivo; conditions: FIG. 3
Description: After the mice were sacrificed, the pancreas tissue was collected, fixed with formalin solution (TONYAR biotech. Inc., Taiwan), embedded in paraffin, tissue sectioned, and then subjected to H&E staining and immunohistochemical staining. […]

[3] = system: advanced pancreatic cancer; conditions: first-line chemotherapy for advanced pancreatic cancer; background statement; cited from earlier work
[4] = Side effects of Gemcitabine: body and muscle weight, serum biochemical and blood cell analysis in KC mice; type: in vivo
Description: In the experiment, a 12-week-old LSL-Kras^G12D/−-Pdx-1-Cre (KC) gene transgenic mouse was used to simulate a mouse model of pancreatic cancer. The national laboratory animal center of National Applied Research Laboratories was entrusted to introduce the experimental animals from the Frederick National Laboratory for cancer research, and then conduct breeding, reproducing and embryo freezing, and then the experimental animals are bred in the animal center attached to Chung Shan Medical University in Taichung. The environment for feeding animals is controlled at a room temperature (20 to 23° C.) and in a humidity of 50 to 60%, and the light cycles of day and night are maintained for 12 hours respectively. Experimental animals are allowed to eat and drink freely. All animal experiment procedures were carried out in accordance with the protocol approved by institutional animal care and use committee (IACUC) of Chung Shan Medical University.
In order to induce acute pancreatitis in mice, Caerulein (25 μg/kg/h) were injected into the abdominal cavity of the mice by intraperitoneal (IP) injection every 7 hours 3 days before and 1 day before the experiment. The experimental mice were was divided into 4 groups. The chemotherapeutic drug of Gemcitabine was given with different concentrations (20, 50, 100, 200 mg/kg of body weight), and was administered by intraperitoneal injection for 4 consecutive weeks, once every 3 days, 10 times in total.
Two strains of the Lactobacillus paracasei GMNL-133 and the Lactobacillus reuteri GMNL-89 were used in the experiment, respectively with the ratio of 1:0.1 (1.64×10^7 CFU/0.02 kg of body weight: 1.64×10^6 CFU/0.02 kg of body weight) and the ratio of 1:1 (1.64×10^7 CFU/0.02 kg of body weight: 1.64×10^7 CFU/0.02 kg of body weight). The dosage used is based on that 12.3 times the recommended daily intake per kilogram of body weight for humans is 1 time the dose for mice. The probiotic composition was fed into the stomach of the mice by tube feeding, 5 days a week, once a day, 0.2 mL each time.
In order to study the adverse effects of the Caerulein, the chemotherapeutic drug of the Gemcitabine, and probiotic composition on serum biochemistry and blood cells, blood was collected after cardiac puncture in anesthetized mice, and the blood was immediately sent to Axel Biotechnology Inc. (Taichung) to perform blood tests and serum biochemical analysis.

[5] = Gemcitabine 20, 50, 100, 200 mg/kg IP alone, compared with untreated mice
[6] = Caerulein-treated KC mice, Gemcitabine 200 mg/kg alone

Nc1ccn([C@@H]2O[C@H](CO)[C@@H](O)C2(F)F)c(=O)n1 [Gemcitabine]
cell viability rate (time of lowest value) [1]: reached the lowest on the sixth day | death of BXPC-3 pancreatic cancer cells (onset) [1]: caused the death of the BXPC-3 pancreatic cancer cells from the second day | tissue staining results at the two high doses ([2]; Gemcitabine 100 mg/kg and 200 mg/kg): excellent results | expressions of the vimentin and the cell proliferation marker of Ki67 [2, 5]: also lower | pancreatic intraepithelial neoplasia lesion grades (H&E staining) [2, 5]: lower than those of the untreated mice | 5-year survival rate of patients [3]: 30% | ALT [4, 6]: 60 U/L | AST [4, 6]: 351 U/L | Body weight [4, 6]: 21.10 ± 1.44 g | Gastrocnemius muscle weight [4, 6]: 0.13 ± 0.00 g | Platelets [4, 6]: 1222.00 K/μL | Red blood cell [4, 6]: 8.70 M/μL | White blood cell [4, 6]: 3.04 K/μL | body weight and muscle (gastrocnemius) weight ([4]; KC mice treated with Caerulein (25 μg/kg), Gemcitabine alone): lose weight and muscle (gastrocnemius) weight significantly | liver function index of AST and ALT ([4]; KC mice treated with Caerulein (25 μg/kg), only Gemcitabine): prone to elevate
